In patent publication US20230271956A1, “AMIDE DERIVATIVES” (Merck Patent GmbH, priority 2020, published 2023):

Key:
[1] = molecular target: T1, human rec ACSS2 (Homo sapiens, UniProt Q9NR19); assay: Biochemical activity ACSS2 assay (AMP-Glo); settings: human recombinant ACSS2, AMP-Glo, 180 min at 37° C.
T1 construct: myc (C); purchased Origene
Procedure, shortened: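 C-terminal myc-tagged human recombinant ACSS2 (1 nM) reacted with 100 µM ATP, 100 µM CoA and 500 µM acetate (final) in pH 7.5 Hepes buffer for 180 min at 37° C, compound in 10 concentrations from 30 µM. Released AMP detected by AMP-Glo luminescence. IC50 normalised to inhibitor-free reaction and 5 µM reference inhibitor.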

[2] = molecular target: T2, ACSS2 (Homo sapiens, UniProt Q9NR19); assay: Cellular assay of 14C acetate incorporation into histones (IC50 ACSS2 cellular histone); assay type: cell-based; settings: HCT-15 cells
T2 construct: endogenous fatty acid synthesis activity in the human HCT-15 cancer cell line; endogenous in cells; host or cells: HCT-15
T2 sequence (Q9NR19 whole entry): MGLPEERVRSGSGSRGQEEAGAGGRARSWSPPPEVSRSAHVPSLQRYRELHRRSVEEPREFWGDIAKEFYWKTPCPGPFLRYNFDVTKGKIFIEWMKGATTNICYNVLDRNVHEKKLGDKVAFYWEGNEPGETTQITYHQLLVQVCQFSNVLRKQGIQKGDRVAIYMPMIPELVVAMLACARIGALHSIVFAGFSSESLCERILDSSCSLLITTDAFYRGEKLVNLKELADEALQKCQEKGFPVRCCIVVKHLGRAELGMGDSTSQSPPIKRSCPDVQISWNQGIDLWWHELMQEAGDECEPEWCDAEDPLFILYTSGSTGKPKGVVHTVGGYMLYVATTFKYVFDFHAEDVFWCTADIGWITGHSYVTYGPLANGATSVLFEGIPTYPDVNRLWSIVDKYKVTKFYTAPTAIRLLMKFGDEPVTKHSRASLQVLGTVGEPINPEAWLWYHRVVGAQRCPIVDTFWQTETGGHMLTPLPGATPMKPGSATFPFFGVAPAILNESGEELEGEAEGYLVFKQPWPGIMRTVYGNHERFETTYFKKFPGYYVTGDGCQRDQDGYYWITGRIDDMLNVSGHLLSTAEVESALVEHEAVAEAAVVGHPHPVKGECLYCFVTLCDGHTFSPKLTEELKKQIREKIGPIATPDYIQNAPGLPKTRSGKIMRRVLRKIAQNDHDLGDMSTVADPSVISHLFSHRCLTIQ
Procedure, shortened: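 Human HCT-15 cells preincubated 1 h with compound (0.25% DMSO final), then pulsed 3 h with 14C-acetate. Histones were acid-extracted (0.2 M HCl, overnight, 4° C) after Triton lysis in sodium-butyrate buffer; incorporated 14C counted by liquid scintillation (CPM) to give IC50.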

[3] = tested on: CHO-K1 cells; assay: Micronucleus assay (MNT) in vitro; assay type: cell-based; parameters: key: A: negative, putative negative (micronuclei detected beyond threshold of 60% cyctotoxicity); B: positive; settings: 24 hrs treatment, 0.2 µM to 100 µM
Experimental: The in vitro MNT assay is performed in CHO-K1 cells due to their stable and welI-characterized karyotype, high sensitivity and suitability for a high content imaging approach. They have a basal spontaneous micronucleus frequency of 3-4%.
24 hrs after plating CHO-K1 cells are treated with test compounds for 24 hrs (in duplicates; fixed concentration ranges from 0.2 µM to 100 µM in 2-fold dilution steps). After a medium change cells are incubated for 24 hrs with Cytochalasin B to block cytokinesis and are then fixed and nuclei / micronuclei visualized with a DNA stain. Images are acquired with the Molecular Devices high content imagers IXU or IXM and are analyzed with the dedicated MetaXpress software micronucleus module. Criteria for scoring of micronuclei (MN) are the following: • diameter of the MN should be less than ⅓ of the main nucleus • MN should be separated from or marginally overlap with main nucleus (= no blebs) • MN should have similar staining as the main nucleus At least 1000 binucleated cells are evaluated per treatment replicate. Mitomycin C is used as reference stimulator of micronucleus formation. Cytotoxicity is evaluated in parallel and defined by comparing total nuclei count in compound-treated samples to neutral control samples treated with vehicle only (1% DMSO) (100% cytotoxicity means all cells are dead or lost).
A test compound is regarded as POSITIVE if generation of micronuclei and exhibition of less than 60% cytotoxicity at the same concentration can be observed.
Compounds are scored only in the soluble concentration range. Experimental data of the compounds shown in Table 1 in the MNT assay are shown in Table 2 below and classified in the following groups: […]

T1 sequence (Q9NR19 whole entry): as above

Row | Compound | IC50 [1] [nM] | IC50 [2] [nM] | MNT [3]
1 | CCc1c(C(O)(c2ccccc2)c2ccccc2)nn2ccc(C(=O)Nc3ncn(CC)n3)cc12 [Compound 9, 3-Ethyl-2-(hydroxy-diphenyl-methyl)-pyrazolo[1,5-a]pyridine-5-carboxylic acid (1-ethyl-1H-[1,2,4]triazol-3-yl)-amide] | 1 to 10 | 0.01 to 1 | B
2 | CCc1c(C(O)(c2ccccc2)c2ccccc2)nn2ccc(C(=O)Nc3cnn(CC)c3)cc12 [Compound 10, 3-Ethyl-2-(hydroxy-diphenyl-methyl)-pyrazolo[1,5-a]pyridine-5-carboxylic acid (1-ethyl-1H-pyrazol-4-yl)-amide] | 10 to 100 | 10 to 100 | A
3 | CCc1c(C(O)(c2ccccc2)c2ccccc2)nn2cc(OC)c(C(=O)Nc3ncn(CC)n3)cc12 [Compound 11, 3-Ethyl-2-(hydroxy-diphenyl-methyl)-6-methoxy-pyrazolo[1,5-a]pyridine-5-carboxylic acid (1-ethyl-1H-[1,2,4]triazol-3-yl)-amide] | 1 to 10 | 0.01 to 1 | A
4 | CCc1c(C(O)(c2ccccc2)c2ccccc2)nc2ccc(C(=O)Nc3cnn(CC)c3)cn12 [Compound 13, 3-Ethyl-2-(hydroxy-diphenyl-methyl)-imidazo[1,2-a]pyridine-6-carboxylic acid (1-ethyl-1H-pyrazol-4-yl)-amide] | 10 to 100 | 10 to 100 | A
5 | CCc1c(C(O)(c2ccccc2)c2ccccc2)nc2cc(Cl)c(C(=O)Nc3ncn(CC)n3)cn12 [Compound 14, 7-Chloro-3-ethyl-2-(hydroxy-diphenylmethyl)-imidazo[1,2-a]pyridine-6-carboxylic acid (1-ethyl-1H-[1,2,4]triazol-3-yl)-amide] | 1 to 10 | 1 to 10 | A
6 | CCc1c(C(O)(c2ccccc2)c2ccccc2)nc2cc(Cl)c(C(=O)Nc3cnn(CC)c3)cn12 [Compound 19, 7-Chloro-3-ethyl-2-(hydroxy-diphenylmethyl)-imidazo[1,2-a]pyridine-6-carboxylic acid (1-ethyl-1H-pyrazol-4-yl)-amide] | 10 to 100 | 10 to 100 | A
7 | CCc1c(C(O)(c2ccccc2)c2ccccc2)nc2cc(F)c(C(=O)Nc3ncn(CC)n3)cn12 [Compound 20, 3-Ethyl-7-fluoro-2-(hydroxy-diphenylmethyl)-imidazo[1,2-a]pyridine-6-carboxylic acid (1-ethyl-1H-[1,2,4]triazol-3-yl)-amide] | 1 to 10 | 0.01 to 1 | A
8 | CCc1c(C(O)(c2ccccc2)c2ccccc2)nc2cc(OC)c(C(=O)Nc3cnn(CC)c3)cn12 [Compound 23, 3-Ethyl-2-(hydroxy-diphenyl-methyl)-7-methoxy-imidazo[1,2-a]pyridine-6-carboxylic acid (1-ethyl-1H-pyrazol-4-yl)-amide] | 1 to 10 | 1 to 10 | A
9 | CCc1c(C(O)(c2ccccc2)c2ccccc2)nc2cc(OC)c(C(=O)Nc3ncn(CC)n3)cn12 [Compound 24, 3-Ethyl-2-(hydroxy-diphenyl-methyl)-7-methoxy-imidazo[1,2-a]pyridine-6-carboxylic acid (1-ethyl-1H-[1,2,4]triazol-3-yl)-amide] | 1 to 10 | 0.01 to 1 | A
10 | CCc1c(C(O)(c2ccccc2)c2ccccc2)nc2ccc(C(=O)Nc3ncn(CC)n3)cn12 [Compound 25, 3-Ethyl-2-(hydroxy-diphenyl-methyl)-imidazo[1,2-a]pyridine-6-carboxylic acid (1-ethyl-1H-[1,2,4]triazol-3-yl)-amide] | 1 to 10 | 0.01 to 1 | A
11 | CCc1c(C(O)(c2ccccc2F)c2ccccc2F)nc2cc(OC)c(C(=O)Nc3ncn(CC)n3)cn12 [Compound 28, 2-[Bis-(2-fluoro-phenyl)-hydroxy-methyl]-3-ethyl-7-methoxy-imidazo[1,2-a]pyridine-6-carboxylic acid (1-ethyl-1H-[1,2,4]triazol-3-yl)-amide] | 1 to 10 | 0.01 to 1 | A
12 | CCc1c(C(O)(c2ccccc2F)c2ccccc2F)nc2cc(OC)c(C(=O)Nc3cnn(CC)c3)cn12 [Compound 30, 2-[Bis-(2-fluoro-phenyl)-hydroxy-methyl]-3-ethyl-7-methoxy-imidazo[1,2-a]pyridine-6-carboxylic acid (1-ethyl-1H-pyrazol-4-yl)-amide] | 1 to 10 | 1 to 10 | A
13 | CCc1c(C(O)(c2ccccc2F)c2ccccc2F)nc2cc(Cl)c(C(=O)Nc3ncn(CC)n3)cn12 [Compound 31, 2-[Bis-(2-fluoro-phenyl)-hydroxy-methyl]-7-chloro-3-ethyl-imidazo[1,2-a]pyridine-6-carboxylic acid (1-ethyl-1H-[1,2,4]triazol-3-yl)-amide] | 1 to 10 | 0.01 to 1 | A
14 | CCn1cnc(NC(=O)c2cc3c(nc2F)nc(C(O)(c2ccccc2)c2ccccc2)n3CC)n1 [Compound 89, 1-ethyl-N-(1-ethyl-1H-1,2,4-triazol-3-yl)-5-fluoro-2-(hydroxydiphenylmethyl)-1H-imidazo[4,5-b]pyridine-6-carboxamide] | 1 to 10 | 1 to 10 | A
15 | CCn1cc(NC(=O)c2cc3c(nc2F)nc(C(O)(c2ccccc2F)c2ccccc2F)n3CC)cn1 [Compound 90, 2-[bis(2-fluorophenyl)(hydroxy)methyl]-1-ethyl-N-(1-ethyl-1H-pyrazol-4-yl)-5-fluoro-1H-imidazo[4,5-b]pyridine-6-carboxamide] | 1 to 10 | 1 to 10 | A
16 | CCn1cnc(NC(=O)c2cc3c(nc2F)nc(C(O)(c2ccccc2F)c2ccccc2F)n3CC)n1 [Compound 91, 2-[bis(2-fluorophenyl)(hydroxy)methyl]-1-ethyl-N-(1-ethyl-1H-1,2,4-triazol-3-yl)-5-fluoro-1H-imidazo[4,5-b]pyridine-6-carboxamide] | 1 to 10 | 0.01 to 1 | A
17 | CCn1cc(NC(=O)c2cc3c(nc2Cl)nc(C(O)(c2ccccc2)c2ccccc2)n3CC)cn1 [Compound 98, 5-chloro-1-ethyl-N-(1-ethyl-1H-pyrazol-4-yl)-2-(hydroxydiphenylmethyl)-1H-imidazo[4,5-b]pyridine-6-carboxamide] | 1 to 10 | 1 to 10 | A
18 | CCn1cnc(NC(=O)c2cc3c(nc2OC)nc(C(O)(c2ccccc2F)c2ccccc2F)n3CC)n1 [Compound 102, 2-[bis(2-fluorophenyl)(hydroxy)methyl]-1-ethyl-N-(1-ethyl-1H-1,2,4-triazol-3-yl)-5-methoxy-1H-imidazo[4,5-b]pyridine-6-carboxamide] | 0.01 to 1 | 0.01 to 1 | A
19 | CCn1cnc(NC(=O)c2cc3c(nc2OC)nc(C(O)(c2ccccc2)c2ccccc2)n3CC)n1 [Compound 103, 1-ethyl-N-(1-ethyl-1H-1,2,4-triazol-3-yl)-2-(hydroxydiphenylmethyl)-5-methoxy-1H-imidazo[4,5-b]pyridine-6-carboxamide] | 1 to 10 | 0.01 to 1 | A
20 | CCn1c(C(O)(c2ccccc2)c2ccccc2)nc2ccc(C(=O)NC[C@@H](C)O)cc21 [Reference Compound, 3-Ethyl-2-[hydroxy(diphenyl)methyl]-N-[(2R)-2-hydroxypropyl]benzimidazole-5-carboxamide, reference compound] | 100 to 10000 | 0.01 to 1 | B
